Test results published in publication PMC12363342, “Investigating the N-terminal linker histone H1 subtypes as substrates for JmjC lysine demethylases” (RSC Chemical Biology, 2025).
Values belong to the substance of their own block, whether it stands above or below them. Square brackets hold non-standard residues; d marks the D form. Ends that are not written are not given here. Lys(Me3) = C[N+](C)(C)CCCC[C@H](N)C(=O)O; Lys(Me2) = CN(C)CCCC[C@H](N)C(=O)O

Experiments:
[1] = biological target: T1, KDM4E (Homo sapiens, UniProt B2RXH2); experiment: LC-MS demethylation activity assay, KDM4E; format: biochemical; conditions: 10 μM FAS, 100 μM LAA, 20 μM 2OG, room temperature; for KDM4E demethylation activity, D: D (di-) initial methylation state
T1 construct: KDM4DM1-L359,[39]; KDM4EM1-R336,[30]; His6 (N); made in house; host or cells: Escherichia coli
T1 sequence (B2RXH2 1-336): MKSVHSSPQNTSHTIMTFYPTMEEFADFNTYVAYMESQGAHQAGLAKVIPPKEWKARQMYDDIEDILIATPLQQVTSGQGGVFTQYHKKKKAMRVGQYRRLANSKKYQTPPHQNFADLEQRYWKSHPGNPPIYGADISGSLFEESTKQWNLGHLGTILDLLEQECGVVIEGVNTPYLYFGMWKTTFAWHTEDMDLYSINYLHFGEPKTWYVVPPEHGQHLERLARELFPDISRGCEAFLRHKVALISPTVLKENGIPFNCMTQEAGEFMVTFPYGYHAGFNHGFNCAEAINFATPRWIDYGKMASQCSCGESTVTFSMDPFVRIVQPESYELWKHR
Protocol: (§1) The substrate specificity of JmjC KDMs for H1 was examined using liquid chromatography coupled to mass spectrometry (LC-MS) assays. The H1 peptides (10 μM) were incubated with the recombinant KDM (2 μM) in HEPES buffer at pH 7.5 at room temperature for 2 h, in the presence of ferrous(II) ammonium sulfate (FAS, 10 μM), sodium ascorbate (LAA, 100 μM) and 2OG (20 μM), and then quenched with formic acid. N^ε-Methylated H3K9 and H3K36 peptides were used as positive controls (Fig. 3–5 and Fig. S2–S6).[26]
(§2) The catalytic domains of the JmjC KDMs used were recombinantly produced as reported in either Escherichia coli (KDM4AM1-L359,[38] KDM4DM1-L359,[39] KDM4EM1-R336,[30] KDM6BD1141–E1590[40] and KDM3CL2157-L2500) or Sf9 cells (KDM3AT515–S1317, KDM3B882–1761, and KDM5DM1-D775) as N-terminally His6-tagged proteins. […] To produce proteins, DNA sequences encoding for KDM3A, KDM3B and KDM5D were inserted into the pFB-LIC vector, containing a TEV-protease cleavable N-terminal 6x-histidine tag via ligation independent cloning (LIC). The resultant plasmids were transformed into baculovirus and Sf9 cells ([…]) which were infected with the virus stock. The cells were grown at 27 °C and 90 rpm for 70 h. Cells were then harvested and suspended in 100 mL of lysis buffer (50 mM HEPES-NaOH, pH 7.4, 500 mM NaCl, 20 mM imidazole, 0.5 mM Tris (2-carboxyethyl)phosphine (TCEP), 5% (v/v) glycerol). […] The supernatant was loaded onto a Ni-NTA gravity column, washed with 10 column volume of lysis buffer and eluted using the elution buffer (50 mM HEPES-NaOH, pH 7.4, 500 mM NaCl, 300 mM imidazole, 0.5 mM TCEP, 5% (v/v) glycerol). The eluted protein was further purified using S200 gel filtration column chromatography (50 mM HEPES-NaOH, pH 7.4, 150 mM NaCl, 0.5 mM TCEP and 5% glycerol). Protein purity was analysed by SDS-PAGE and further confirmed by mass spectrometry. Selected fractions were pooled, concentrated and stored at −80 °C.
(§3) All reagents were purchased from Sigma Aldrich and were of the highest grade available. Ferrous(II) ammonium sulfate (FAS) solutions were prepared freshly by dissolving FAS to 400 mM in 20 mM HCl with subsequent dilution to 1 mM using deionized water. Fresh 2OG (10 mM) and LAA (50 mM) solutions were prepared by dissolving the solids in deionised water. All enzyme reactions were performed in 384-well plates (Greiner Bio-One) with a final reaction volume of 50 μL. Substrate mixtures contained 50 mM HEPES pH 7.5, LAA (100 μM), FAS (10 μM), 2OG (20 μM) and an H1 isoform peptide (10 μM). Reactions were initiated by the addition of enzyme to a final concentration of 2.0 μM. After 2 h, the reactions were stopped by the addition of 5 μL of 10% (v/v) LC-MS grade formic acid (Fisher Scientific) to a final concentration of 1% (v/v). Product analyses were performed by liquid chromatography-mass spectrometry (LC-MS) using an Agilent 1290 infinity II LC system equipped with an Agilent 1290 multisampler and an Agilent 1290 high speed pump and connected to an Agilent 6550 accurate mass iFunnel quadrupole time of flight (Q-TOF) mass spectrometer. 1 μL of the reaction mixture was injected onto a 1.8 μm × 2.1 × 50 mm ZORBAX RRHD Eclipse Plus C18 column (Agilent). Solvent A consisted of HPLC grade water containing 0.1% (v/v) formic acid and solvent B consisted of MeCN containing 0.1% (v/v) formic acid. Peptides were separated using a stepwise gradient (0 min – 95% solvent A, 1.0 min – 80% solvent A, 3.0 min – 45% solvent A, 4.0 min – 45% solvent A, 5.0 min – 0% solvent A, 6.0 min – 0% solvent A, 7.0 min – 95% solvent A). This was followed by a 3 min post-run with 95% solvent A to re-equilibrate the column. All flow rates were 0.2 mL min^−1. A blank injection of HPLC grade water was carried out between each sample injection.

[2] = test system: KDM4A; experiment: LC-MS demethylation activity assay, KDM4A; format: biochemical, human; conditions: 10 μM FAS, 100 μM LAA, 20 μM 2OG, room temperature; for KDM4A demethylation activity, D: D (di-) initial methylation state; for substrate conversion (demethylation) by KDM4A: 2 μM KDM4A, 10 μM peptide, HEPES pH 7.5, 2 h
Protocol: as §1, §2, §3

[3] = test system: KDM3A; experiment: LC-MS demethylation activity assay, KDM3A; format: biochemical, human; conditions: 2 μM KDM, 10 μM H1/H3 peptide, 10 μM FAS, 100 μM LAA, 20 μM 2OG, 50 mM HEPES pH 7.5, 2 h, room temperature; for KDM3A demethylation activity, D: D (di-) initial methylation state
Protocol: as §1, §2, §3

[4] = test system: KDM5D; experiment: LC-MS demethylation activity assay, KDM5D; format: biochemical, human; conditions: 2 μM KDM, 10 μM H1/H3 peptide, 10 μM FAS, 100 μM LAA, 20 μM 2OG, 50 mM HEPES pH 7.5, 2 h, room temperature; for KDM5D demethylation activity, D: D (di-) initial methylation state
Protocol: as §1, §2, §3

[5] = biological target: T2, KDM4D (Homo sapiens, UniProt Q6B0I6); experiment: LC-MS demethylation activity assay, KDM4D; format: biochemical; conditions: room temperature; for KDM4D demethylation activity, D: D (di-) initial methylation state
T2 construct: KDM4AM1-L359,[38]; KDM4DM1-L359,[39]; KDM4EM1-R336,[30]; His6 (N); made in house; host or cells: Escherichia coli
T2 sequence (Q6B0I6 1-359): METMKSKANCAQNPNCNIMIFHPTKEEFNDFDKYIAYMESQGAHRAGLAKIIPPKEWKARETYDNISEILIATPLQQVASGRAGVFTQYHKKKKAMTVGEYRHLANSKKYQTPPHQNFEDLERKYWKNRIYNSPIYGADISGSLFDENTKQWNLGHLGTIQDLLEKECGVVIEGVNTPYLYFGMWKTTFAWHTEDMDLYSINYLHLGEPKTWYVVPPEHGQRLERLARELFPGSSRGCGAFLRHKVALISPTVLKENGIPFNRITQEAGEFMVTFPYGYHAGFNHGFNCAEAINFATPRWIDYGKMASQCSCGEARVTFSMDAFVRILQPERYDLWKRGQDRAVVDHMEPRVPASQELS
Protocol: as §1, §2, §3

[6] = test system: KDM3B; experiment: LC-MS demethylation activity assay, KDM3B; format: biochemical, human; conditions: 2 μM KDM, 10 μM H1/H3 peptide, 10 μM FAS, 100 μM LAA, 20 μM 2OG, 50 mM HEPES pH 7.5, 2 h, room temperature; for KDM3B demethylation activity, D: D (di-) initial methylation state
Protocol: as §1, §2, §3

[7] = test system: KDM3C; experiment: LC-MS demethylation activity assay, KDM3C; format: biochemical, human; conditions: 2 μM KDM, 10 μM H1/H3 peptide, 10 μM FAS, 100 μM LAA, 20 μM 2OG, 50 mM HEPES pH 7.5, 2 h, room temperature; for KDM3C demethylation activity, D: D (di-) initial methylation state
Protocol: as §1, §2, §3

[8] = test system: KDM6B; experiment: LC-MS demethylation activity assay, KDM6B; format: biochemical, human; conditions: 2 μM KDM, 10 μM H1/H3 peptide, 10 μM FAS, 100 μM LAA, 20 μM 2OG, 50 mM HEPES pH 7.5, 2 h, room temperature; for KDM6B demethylation activity, D: D (di-) initial methylation state
Protocol: as §1, §2, §3

[9] = 2 μM KDM, 10 μM H1/H3 peptide, 50 mM HEPES pH 7.5, 2 h
[10] = 2 μM KDM, 10 μM H1/H3 peptide, 10 μM FAS, 100 μM LAA, 20 μM 2OG, 50 mM HEPES pH 7.5, 2 h
[11] = 2 μM KDM, 10 μM H1/H3 peptide, 50 mM HEPES pH 7.5, 2 h, M (mono-) initial methylation state
[12] = M (mono-) initial methylation state
[13] = 2 μM KDM, 10 μM H1/H3 peptide, 50 mM HEPES pH 7.5, 2 h, T (tri-) initial methylation state
[14] = T (tri-) initial methylation state
[15] = 2 μM KDM4D, 10 μM peptide, standard conditions, 2 h

KDM4E demethylation activity, D [1, 9]: ● [red] | KDM4D demethylation activity, D [5, 10]: ● [red]
Substance: KKKAK[Lys(Me2)]AGATAGKRK [Peptide H1.3K25me2, 15-mer linker histone H1.3 residues 20-34 peptide, di-methylated K25]
KDM4A demethylation activity, D [2, 9]: ● [red] | KDM3A demethylation activity, D [3]: ● [red] | KDM5D demethylation activity, D [4]: ● [red] | KDM3B demethylation activity, D [6]: ● [red] | KDM3C demethylation activity, D [7]: ● [red] | KDM6B demethylation activity, D [8]: ● [red]

KDM4E demethylation activity, M [1, 11]: ● [red] | KDM4D demethylation activity, M ([5]; 2 μM KDM, 10 μM H1/H3 peptide, 10 μM FAS, 100 μM LAA, 20 μM 2OG, 50 mM HEPES pH 7.5, 2 h, M (mono-) initial methylation state): ● [red]
Substance: KKKAAKmeKAGGTPRKA [Peptide H1.2K25me, 15-mer linker histone H1.2 residues 20-34 peptide, mono-methylated K25]
KDM4A demethylation activity, M [2, 11]: ● [red] | KDM3A demethylation activity, M [3, 12]: ● [red] | KDM5D demethylation activity, M [4, 12]: ● [red] | KDM3B demethylation activity, M [6, 12]: ● [red] | KDM3C demethylation activity, M [7, 12]: ● [red] | KDM6B demethylation activity, M [8, 12]: ● [red]

substrate conversion (demethylation) by KDM4E ([1]; 2 μM KDM4E, 10 μM peptide, HEPES pH 7.5, 2 h): ~50% | KDM4E demethylation activity, D [1, 9]: ● [red] | substrate conversion (demethylation) by KDM4D ([5]; 2 μM KDM4D, 10 μM peptide, 10 μM FAS, 100 μM LAA, 20 μM 2OG, HEPES pH 7.5, 2 h): > 40%
Substance: KKKAR[Lys(Me2)]SAGAAKRKA [Peptide H1.4K25me2, 15-mer linker histone H1.4 residues 20-34 peptide, di-methylated K25]
substrate conversion (demethylation) by KDM4A [2]: ~20% | KDM4A demethylation activity, D [2, 9]: ● [black] (black dots indicate low-level demethylation (<10% conversion)) | KDM3A demethylation activity, D [3]: ● [red] | KDM5D demethylation activity, D [4]: ● [red] | KDM4D demethylation activity, D [5, 10]: ● [yellow] (yellow dots indicate moderate demethylation (<50% conversion)) | KDM3B demethylation activity, D [6]: ● [red] | KDM3C demethylation activity, D [7]: ● [red] | KDM6B demethylation activity, D [8]: ● [red]

KDM4E demethylation activity, T [1, 13]: ● [red] | KDM4D demethylation activity, in words [5, 15]: No activity was observed | di-methylated product formed by KDM4D [5, 15]: < 5% | KDM4D demethylation activity, T ([5]; 2 μM KDM, 10 μM H1/H3 peptide, 10 μM FAS, 100 μM LAA, 20 μM 2OG, 50 mM HEPES pH 7.5, 2 h, T (tri-) initial methylation state): ● [red]
Substance: KKKAT[Lys(Me3)]KAAGAGAAK [Peptide H1.5K25me3, 15-mer linker histone H1.5 residues 20-34 peptide, tri-methylated K25]
substrate conversion (demethylation) by KDM4A [2]: < 10% | KDM4A demethylation activity, T [2, 13]: ● [yellow] (yellow dots indicate moderate demethylation (<50% conversion)) | KDM3A demethylation activity, T [3, 14]: ● [red] | KDM5D demethylation activity, T [4, 14]: ● [red] | KDM3B demethylation activity, T [6, 14]: ● [red] | KDM3C demethylation activity, T [7, 14]: ● [red] | KDM6B demethylation activity, T [8, 14]: ● [red]
